Measurements from patent publication US9567306B2, “Inhibition of macrophage migration inhibitory factor in melanoma and colon cancer” (THE FEINSTEIN INSTITUTE FOR MEDICAL RESEARCH, priority 2014, dated 2017).
pIC50: −log10 of the molar value. Entries after “also recorded” stand apart in the source; their conditions may differ.

Columns and labels:
B16 tumor = details: 80 mg/kg (Yaddanapudi et al.); cited from earlier work
CT-26 colon tumors = details: administered twice per week (He et al.); cited from earlier work
MIF = target: T1, MIF (Homo sapiens, UniProt P14174); test: MIF tautomerase inhibition assay (L-dopachrome methyl ester); type: biochemical
T1 sequence (P14174 2-115 limits assumed): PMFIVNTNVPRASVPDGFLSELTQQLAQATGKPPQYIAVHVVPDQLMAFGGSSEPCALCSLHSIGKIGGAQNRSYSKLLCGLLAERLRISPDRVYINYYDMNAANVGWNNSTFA
Procedure: MIF tautomerase inhibition assay: MIF tautomerase activity was measured using a UV-Visible spectrophotometer (SHIMADZU, UV1600U). A fresh stock solution of L-dopachrome methyl ester was prepared at 2.4 mM through oxidation of L-3,4-dihydroxyphenylalanine methyl ester with sodium periodate. 1 μL of MIF solution (800-900 μg/mL) and 1 μL of a dimethyl sulfoxide (DMSO) solution with various concentrations of the MIF inhibitor were added into a plastic cuvette (10 mm, 1.5 mL) containing 0.7 mL assay buffer (50 mM potassium phosphate, pH 7.2). Then, activated L-dopachrome methyl ester solution (0.3 mL) was added to the assay buffer mixture. Activity was determined at room temperature and spectrometric measurements were made every 5 sec at λ, =475 nm for total 20 sec, by monitoring the rate of decolorization of L-dopachrome in comparison to a standard solution.

Solubility comparison = type: physicochemical; details: relative to ISO-66
[1] = Stability in buffer (decarboxylation, mass spectrometry); type: physicochemical; details: upon formulation in buffer; by mass spectrometry

Compound: Ic1cc(-c2ccccc2)ncn1 [4-IPP]
- effect on rate of B16 tumor growth (B16 tumor): significantly slowed the rate of B16 tumor growth

Compound: COC(=O)CC1CC(c2ccc(O)cc2)=NO1 (centres unmarked) [ISO-1]
- inhibition of CT-26 colon tumors (CT-26 colon tumors): 25%

Compound: O=C(O)CC(=O)CC1CC(c2ccc(O)c(F)c2)=NO1 (centres unmarked) [KF III 53Y]
- pIC50 (MIF): 5.74
- solubility (Solubility comparison): better solubility than ISO-66
- stability (decarboxylation to ISO-66) [1]: spontaneously decarboxylates to form ISO-66; also recorded: undergoes fast decarboxlyation to form ISO-66; also recorded: spontaneously decarboxylated non-enzymatically
